In one data set the target is T1, xanthine oxidase (Bos taurus, UniProt P80457).
T1 construct: purchased Sigma Chemical Company, St. Louis, Mo; host or cells: milk (grade III, chromatographically purified)
Nature of the data set: in vitro xanthine oxidase assay (rate of uric acid formation from xanthine). The class given is biochemical. Here is the method: Since uric acid is produced by the oxidation of, first, hypoxanthine to xanthine and, second, of xanthine to uric acid via the enzyme, xanthine oxidase, an inhibitor of xanthine oxidase in vivo would obviously decrease the uric acid concentrations in the blood.
Xanthine oxidase activity was measured at room temperature by the rate of uric acid formation from xanthine substrate. In a total volume of 1 ml., the incubation mixture contained 50 micromoles of potassium phosphate buffer at pH 7.4, 0.05 micromoles of xanthine and 0.01 units of enzyme preparation (chromatographically purified milk xanthine oxidase, grade III, obtained from Sigma Chemical Company, St. Louis, Mo.). The absorbence change at 292 nm was recorded by a Gilford recording spectrophotometer and the uric acid formed was calculated using an extinction coefficient of 12 mM^-1 Cm^-1 at 292 nm.

Another data set concerns plasma uric acid. Nature of the data set: in vivo lowering of plasma uric acid in rats, oral (ED50). The following applies: Rattus norvegicus, read-out: ED50 (dose which reduces plasma level of uric acid by one-half). Here is the method:
(§1) All of the compounds corresponding to formula I above which applicants have prepared are active in vivo in lowering plasma uric acid levels. […] The first method, the spectrofluorometric method, was modified from the procedure of Sumi et al., Clinica. Chimica. Acta., 73, 233 (1976). Rats were sacrificed by decapitation and their blood collected into vacutainer tubes containing heparin via heparinized glass funnels. The blood was centrifuged for 8 minutes at 4000 rpm after which time the plasma was separated and diluted 1:1 with water. Plasma protein was precipitated by addition of acetic acid to a final concentration of 0.007 molar and boiling the resulting mixture for 5 minutes in Sorval tubes. Clear deproteinized plasma was obtained after centrifugation of the resulting plasma for 30 minutes at 25,000 rpm. Uric acid was assayed as follows: 0.2 ml. aliquots of the clear deproteinized plasma were mixed with 120λ of uricase (0.045 mu/ml.) and incubated for 30 minutes at 27° C. 1.0 ml. of a p-hydroxyphenylacetic acid buffer was added. Samples obtained from feeding rats or dogs serial doses of the compound under test were incubated with the above buffer solution for 30 minutes at 27° C. Fluorescence of the solution was measured in quartz tubes using an Aminco Bowman-Spectrofluorimeter having excitation of 321 nm and emission at 412 nm. Five uric acid standards from 6-30 micromolar were assayed for each test and each standard yielded a linear curve.
The second method was called the HPLC-EC Detection method. Here, blood plasma was collected from rats as described above and from dogs in heparinized syringes from the cefalic vein in the forearm and centrifuged with Sure-Sep to separate plasma. Deproteninized plasma was prepared in each instance by first diluting one volume of plasma with one volume of an internal standard solution, 4 mcg./ml., and then addition of two volumes of 5% trichloroacetic acid. Standards were added to control plasma in the range of 0-8 mcg./ml. of uric acid. Samples obtained by feeding graded doses of drug under test to dogs or rats were mixed for 30 seconds and then centrifuged in an Eppendorf microcentrifuge. Supernates were diluted 1:10 in column buffer and assayed for uric acid. Internal standards used were 3-methyluric acid for the rat samples and 3,9-dimethyluric acid for dog samples. Assays were performed as follows using a Bioanalytic Systems Inc. LC-44 analyser and an electrochemical detector system based on an Altex model 110 pump coupled with a CP-O carbon paste electrodetector. Samples for assay were put into a DuPont 834 autosampler and automatically injected into a laboratory packed stainless steel column (4.1 mm id, 1/4" od 25 cm.1) containing reverse phase packing (sperisorb. O.D. 5μ Regis Chemical Co.). The column buffers employed were 0.1 M disodium phosphate, 0.05 M citric acid and 10% methanol for rat samples; 0.1 M disodium phosphate, 10% methanol and citric acid titrated at pH 6.5 for dog samples. The same internal standards were employed as before. Retention times for uric acid, 3-methyluric acid and 3,9-dimethyluric acid were established. Uric acid levels were then calculated from peak areas by computer analysis. Table V which follows gives the oral ED50 in rats for a group of the preferred compounds of this invention (those in which the 3-position of the isothiazole ring carries a 3-trifluoromethylphenyl group). […]

Data set [1] can be described thus: oral acute toxicity in mice (LD50). The following applies: mouse, in vivo; for LD50: oral, mice, read-out: LD50 (dose which kills one-half of the animals); for therapeutic index (LD50/ED50): oral LD50 mice / oral ED50 rats, read-out: Ratio of LD50 to ED50. The text has this: The compounds represented by the above formula are also relatively non-toxic. In column 3 of Table V are listed the oral LD50 for mice in mg. per kg. for each of the compounds of column 1 (dose which kills one-half of the animals). Finally, column 4 in Table V gives the ratio of LD50 to ED50. It will be seen that the ratio of the LD50 to the ED50 is quite high, giving a substantial margin of safety for using the compounds of this invention in treating gout in mammals, particularly humans.

Data set [2] can be described thus: oral administration of ester and amides, percent inhibition in vivo. The procedure:
as §1
The second method was called the HPLC-EC Detection method. Here, blood plasma was collected from rats as described above and from dogs in heparinized syringes from the cefalic vein in the forearm and centrifuged with Sure-Sep to separate plasma. Deproteninized plasma was prepared in each instance by first diluting one volume of plasma with one volume of an internal standard solution, 4 mcg./ml., and then addition of two volumes of 5% trichloroacetic acid. Standards were added to control plasma in the range of 0-8 mcg./ml. of uric acid. […] Uric acid levels were then calculated from peak areas by computer analysis. […]

Where [3] appears, read: milk xanthine oxidase 0.01 units, 0.05 micromoles xanthine in 1 ml, pH 7.4, room temperature, 292 nm, read-out: I50 (concentration of drug which inhibits 50% of the oxidation of xanthine to uric acid by the xanthine oxidase preparation) (converted).

Read-outs that look alike come from different tables or passages of the source.

T1 sequence (P80457 whole entry): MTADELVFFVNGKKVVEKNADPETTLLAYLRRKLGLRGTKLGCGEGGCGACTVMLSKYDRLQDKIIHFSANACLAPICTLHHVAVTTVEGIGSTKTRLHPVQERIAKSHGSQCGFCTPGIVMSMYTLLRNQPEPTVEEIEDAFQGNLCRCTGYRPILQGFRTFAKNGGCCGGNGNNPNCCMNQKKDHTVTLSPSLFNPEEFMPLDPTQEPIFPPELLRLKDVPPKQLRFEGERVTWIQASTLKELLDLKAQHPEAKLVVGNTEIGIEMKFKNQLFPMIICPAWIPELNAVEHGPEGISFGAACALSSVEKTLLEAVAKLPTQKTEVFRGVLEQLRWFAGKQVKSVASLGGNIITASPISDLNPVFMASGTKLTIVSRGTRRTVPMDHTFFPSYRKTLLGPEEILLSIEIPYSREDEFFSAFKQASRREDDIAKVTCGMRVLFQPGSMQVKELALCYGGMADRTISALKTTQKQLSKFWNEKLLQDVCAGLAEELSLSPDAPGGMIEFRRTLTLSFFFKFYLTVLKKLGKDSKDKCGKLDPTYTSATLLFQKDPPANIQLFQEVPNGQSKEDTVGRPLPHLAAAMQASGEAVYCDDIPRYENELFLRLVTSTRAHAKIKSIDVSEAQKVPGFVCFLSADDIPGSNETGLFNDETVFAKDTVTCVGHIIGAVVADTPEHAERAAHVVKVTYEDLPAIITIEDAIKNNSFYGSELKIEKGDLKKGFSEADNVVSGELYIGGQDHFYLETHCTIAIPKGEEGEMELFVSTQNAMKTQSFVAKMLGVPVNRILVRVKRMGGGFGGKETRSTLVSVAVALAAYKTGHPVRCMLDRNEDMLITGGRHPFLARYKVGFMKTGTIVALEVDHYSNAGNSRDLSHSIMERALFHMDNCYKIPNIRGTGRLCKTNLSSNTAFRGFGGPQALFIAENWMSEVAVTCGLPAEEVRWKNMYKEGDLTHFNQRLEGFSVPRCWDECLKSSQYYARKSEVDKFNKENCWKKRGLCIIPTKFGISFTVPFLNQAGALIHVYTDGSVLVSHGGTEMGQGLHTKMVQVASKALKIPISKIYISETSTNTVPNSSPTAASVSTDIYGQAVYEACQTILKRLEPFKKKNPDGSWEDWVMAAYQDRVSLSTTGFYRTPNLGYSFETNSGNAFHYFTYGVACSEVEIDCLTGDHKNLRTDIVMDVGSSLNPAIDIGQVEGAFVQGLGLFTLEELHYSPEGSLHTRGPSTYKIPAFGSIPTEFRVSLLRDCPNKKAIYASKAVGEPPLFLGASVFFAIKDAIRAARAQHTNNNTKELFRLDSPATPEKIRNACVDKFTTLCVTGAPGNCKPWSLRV

In general, ED50 refers to the dose that gives a 50% effect, or the effect in half of the subjects. Usually LD50 stands for the dose expected to kill half of the subjects tested. `Nc1c(-c2cccc(C(F)(F)F)c2)nsc1C(=O)O` [R=3-CF3, R^1=H, 3-(3-trifluoromethylphenyl)-4-amino-5-isothiazolecarboxylic acid]: the IC50 on xanthine oxidase (setting [3]) was 76.3 nM. For the same compound, in the data set on plasma uric acid, the ED50 was found to be 17.5 mg/kg. Besides, the LD50 in data set [1] is 798 ± 66 mg/kg.
`O=C(O)c1snc(-c2cccc(C(F)(F)F)c2)c1Br` [R=3-CF3, X=Br, 3-(3-trifluoromethylphenyl)-4-bromo-5-isothiazolecarboxylic acid]: the IC50 at xanthine oxidase is 51.1 nM. Besides, the ED50 with plasma uric acid was 5.2 mg/kg. For the same compound, in data set [1], the therapeutic index (LD50/ED50) is around 50 and the LD50 was around 260 mg/kg.
The like results for `O=C(O)c1snc(-c2cccc(C(F)(F)F)c2)c1Cl` [R=3-CF3, X=Cl, 3-(3-trifluoromethylphenyl)-4-chloro-5-isothiazolecarboxylic acid] were, in that order, 32.5 nM, 6.4 mg/kg, 21.6 and 138 ± 12 mg/kg.
In the case of `O=C(O)c1cc(-c2cccc(C(F)(F)F)c2)ns1` [R=3-CF3, X=H, 3-(3-trifluoromethylphenyl)-5-isothiazolecarboxylic acid], on xanthine oxidase (setting [3]), the IC50 is 54.9 nM. Also, in the data set with plasma uric acid, the ED50 was determined as 15 mg/kg. Moreover, in data set [1], the therapeutic index (LD50/ED50) is 13.4 and the LD50 is 201 ± 13 mg/kg.
The corresponding values for `O=C(O)c1snc(-c2cccc(C(F)(F)F)c2)c1O` [R=3-CF3, X=OH, 3-(3-trifluoromethylphenyl)-4-hydroxy-5-isothiazolecarboxylic acid] are 25.6 nM, 18 mg/kg, 40 and 727 ± 35 mg/kg.
For the compound `COc1ccc(-c2nsc(C(=O)O)c2Cl)cc1` [R=4-OCH3, X=Cl, 3-(4-anisyl)-4-chloro-5-isothiazolecarboxylic acid], the IC50 on xanthine oxidase (setting [3]) was 51.9 nM.
The same measure, in the same setting: under `COc1ccc(-c2cc(C(=O)O)sn2)cc1` [R=4-OCH3, X=H, 3-(4-anisyl)-5-isothiazolecarboxylic acid] stands 276 nM; under `CC(C)Oc1ccc(-c2nsc(C(=O)O)c2N)cc1` [R=4-OCH(CH3)2, R^1=H, 3-(4-isopropoxyphenyl)-4-amino-5-isothiazolecarboxylic acid], 68.3 nM.
On the same count and under the same terms, the figure for `Nc1c(-c2ccccc2)nsc1C(=O)O` [R=H, R^1=H, 3-phenyl-4-amino-5-isothiazolecarboxylic acid] is 2130 nM.
As for `O=C(O)c1snc(-c2ccccc2)c1Cl` [R=H, X=Cl, 3-phenyl-4-chloro-5-isothiazolecarboxylic acid], the IC50 on xanthine oxidase (setting [3]) is 225 nM.
The same measure, in the same setting: the figure for `O=C(O)c1cc(-c2ccccc2)ns1` [R=H, X=H, 3-phenyl-5-isothiazolecarboxylic acid] is 2340 nM.
On the same count and under the same terms, under `O=C(O)c1snc(-c2ccccc2)c1O` [R=H, X=OH, 3-phenyl-4-hydroxy-5-isothiazolecarboxylic acid] stands 203 nM.
Take `NC(=O)c1snc(-c2cccc(C(F)(F)F)c2)c1N` [R=NH2, 3-(3-trifluoromethylphenyl)-4-amino-5-isothiazolecarboxamide]: in data set [2] (oral dosage 50 mg.kg), the “Percent Inhibition” value was 13%.
`CNC(=O)c1snc(-c2cccc(C(F)(F)F)c2)c1N` [R=NHCH3, N-methyl 3-(3-trifluoromethylphenyl)-4-amino-5-isothiazolecarboxamide]: the “Percent Inhibition” value in data set [2] (oral dosage 25 mg.kg) turned out to be 32%.
Still for that read-out and setting: under `COC(=O)c1snc(-c2cccc(C(F)(F)F)c2)c1N` [R=OCH3, Methyl 3-(3-trifluoromethylphenyl)-4-amino-5-isothiazolecarboxylate] stands 64%.
